PubChem BioAssay (NCI)
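Results reflect a 48-hour exposure of cells in 96-well plates to compound at five concentrations. The concentration for 50% growth inhibition is given as GI50. TGI marks complete inhibition of growth.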

Key:
Experiment in all cases: NCI-60 cell line screen, 48 h
A498 renal = system: A498 renal
SK-MEL-5 melanoma = system: SK-MEL-5 melanoma
CCRF-CEM leukemia = system: CCRF-CEM leukemia
SF-539 CNS = system: SF-539 CNS
LOX IMVI melanoma = system: LOX IMVI melanoma
RPMI-8226 leukemia = system: RPMI-8226 leukemia
KM12 colon = system: KM12 colon
HCC-2998 colon = system: HCC-2998 colon
DU-145 prostate = system: DU-145 prostate
NCI/ADR-RES ovarian = system: NCI/ADR-RES ovarian

Row | Compound | TGI (A498 renal) [µM] | TGI (SK-MEL-5 melanoma) [µM] | TGI (CCRF-CEM leukemia) [µM] | TGI (SF-539 CNS) [µM] | TGI (LOX IMVI melanoma) [µM] | TGI (RPMI-8226 leukemia) [µM] | TGI (KM12 colon) [µM] | TGI (HCC-2998 colon) [µM] | TGI (DU-145 prostate) [µM] | TGI (NCI/ADR-RES ovarian) [µM] | GI50 (A498 renal) [µM] | GI50 (SK-MEL-5 melanoma) [µM] | GI50 (KM12 colon) [µM] | GI50 (NCI/ADR-RES ovarian) [µM] | GI50 (HCC-2998 colon) [µM] | GI50 (DU-145 prostate) [µM] | GI50 (CCRF-CEM leukemia) [µM]
1 | COC(=O)n1c(C[P+](c2ccccc2)(c2ccccc2)c2ccccc2)cc2ccccc21 | 22.7 | 3.93 | 21.1 | 14.7 | 11.5 | 14.7 | 3.94 | 10.3 |  |  |  |  |  |  |  |  | 
2 | COc1ccc(C2=C(OC(=O)N(C)C)c3cccn3-c3cc(Cl)ccc3S2)cc1 |  | > 10 | > 10 |  | > 10 | > 10 | > 10 | > 10 | > 10 |  |  |  |  |  |  |  | 
3 | CCOC(=O)CCCn1cc(C(=O)OC)nn1 |  | > 100 | > 100 | > 100 | > 100 |  | > 100 | > 100 | > 100 | > 100 |  |  |  |  |  |  | 
4 | CCOC(=O)C1CCCCc2sc(N)c(C#N)c21 (stereo not drawn) | > 100 | > 100 |  |  |  | > 100 | > 100 | > 100 |  |  |  |  |  |  |  |  | 
5 | Cc1cc(=O)[nH]c(NNC(C#N)c2ccc([N+](=O)[O-])cc2)n1 (stereo not drawn) |  | > 100 | > 100 | > 100 | > 100 | > 100 | > 100 |  |  |  |  |  |  |  |  |  | 
6 | CC(=O)NC1=C(NCC(C)C)C(=O)c2ccccc2C1=O | > 100 | 43.6 | 28.4 | 32.2 | 30.1 | > 100 | > 100 | > 100 |  |  |  |  |  |  |  |  | 
7 | NS(=O)(=O)c1cc(S(N)(=O)=O)c(NC(=O)N(c2ccccc2)c2ccccc2)c(Cl)c1Cl |  | 33.1 | 25.7 |  | 25 | 44.6 | 57.1 | 35.3 |  | 54.4 |  |  |  |  |  |  | 
8 | CCCCCCCCCCCCCCCCOCC(Cl)COP(=O)(O)OP(=O)(O)OCC1OC(n2cnc3c(N)ncnc32)C(O)C1O (stereo not drawn) | > 100 | > 100 | > 100 | > 100 | > 100 | > 100 | > 100 | > 100 |  | > 100 |  |  |  |  |  |  | 
9 | COC(=O)/C=C/c1ccc2c(c1)CC1(Cc3ccccc3C1)C2 | > 100 | > 100 | 57.3 | > 100 | > 100 | > 100 | > 100 | > 100 |  | > 100 |  |  |  |  |  |  | 
10 | CC1(C)COC(c2c(-c3ccccc3)noc2CS(=O)c2ccccc2)=N1 (stereo not drawn) | > 100 | > 100 | > 100 | > 100 | > 100 | > 100 | > 100 | > 100 |  |  |  |  |  |  |  |  | 
11 | COC(=O)CC(NC(=O)OCc1ccccc1)C(C(=O)OCc1ccccc1)C1(C)OCCO1 (stereo not drawn) | > 100 | 32.7 | > 100 | > 100 | > 100 | 73.7 |  | > 100 |  |  |  |  |  |  |  |  | 
12 | O=C(CSc1nc2ccc(I)cc2c(=O)n1Cc1ccccc1)NN1C(=O)CCC1=O |  | > 100 | > 100 | > 100 | > 100 | > 100 | > 100 | > 100 | > 100 | > 100 |  |  |  |  |  |  | 
13 | CC12CC(C/C1=N/O)C(C)(C)C2 (stereo not drawn) | > 100 | > 100 | > 100 | > 100 |  |  | > 100 | > 100 | > 100 |  |  |  |  |  |  |  | 
14 | CCCCCCOc1ccc(C(=N)N(CCCC)CCCC)c2ccccc12 | 2.45 | 2.85 |  |  |  |  | 3.09 | 3.03 | 2.86 | 2.79 | 1.19 | 1.52 | 1.61 | 1.43 | 1.59 | 1.49 | 
15 | CCCCCCOP(=O)(OCCCCCC)OC(C(=O)OC)C(F)(F)F (stereo not drawn) |  | > 100 | > 100 | > 100 | > 100 | > 100 | > 100 | > 100 | > 100 | > 100 |  |  |  |  |  |  | 
16 | CCOC(=O)c1nc2ccccc2nc1NCc1ccc(Cl)cc1Cl | > 100 | > 100 | > 100 | > 100 | > 100 | > 100 | > 100 |  |  | > 100 |  |  |  |  |  |  | 
17 | O=C(/C=C/c1ccco1)c1cccc(C(=O)/C=C/c2ccco2)n1 | > 100 | > 100 |  | 17.5 | 5.37 |  | > 55.8 | > 100 | > 100 | > 73.3 |  |  |  |  |  |  | 
18 | C/C(=C\Cc1cc(O)ccc1O)CCc1c(C)cc(O)c(C=O)c1C | > 100 | 31.7 | 30.5 | 38.3 |  | > 100 | > 100 | > 100 |  |  |  |  |  |  |  |  | 4.46
